Data: publication PMC2706098 (Molecular pharmaceutics, 2009)

Legend:
LinkCD = assay: UV absorbance at […] nm of quenched aliquots, double-reciprocal plot; type: biochemical, Homo sapiens; Saccharomyces cerevisiae; settings: read-out: Enzyme kinetics (5-FC) / Km; PBS, 37 °C; CD active site
Nc1nc(=O)[nH]cc1F = assay: purified protein; type: biochemical, Saccharomyces cerevisiae; settings: PBS, 37 °C, one experiment

Row | Compound | Km (LinkCD) [µM] | Vmax (Nc1nc(=O)[nH]cc1F) [µM/min/mg]
1 | Nc1nc(=O)[nH]cc1F [5-FC, 5-fluorocytosine] | 330 ± 40 | –
2 | CD (yeast cytosine deaminase) (Saccharomyces cerevisiae S288C) | – | 120000
